Data published in patent US12624004B2 (Fudan University, priority 2019, dated 2026).
Read-outs that look alike come from different tables or passages of the source.

Experiments:
μ opioid receptor = target: T1, μ opioid receptor (Homo sapiens, UniProt P35372); test: Competition binding assay on membranes of CHO cells expressing μ opioid receptor, [3H]-labeled ligand; details: for inhibition at 10 µM: Table 1-1, 10 μM concentration of compound, mean ± SD of three measurements, read-out: μOR Binding rate (%); for inhibition at 1 µM: 0.5 h, read-out: μOR Combination rate (%)
T1 construct: expressed in transfected cells; host or cells: CHO cells (membranes)
Experimental: (§1) CHO cells expressing p opioid receptor, δ opioid receptor and κ opioid receptor were cultured in 10 cm^2 culture dishes (F-12 medium+10% neonatal bovine serum) for several days, and the culture fluid was aspirated after the cells had grown to the bottom of the dishes; 3 ml of PBS/EDTA solution (0.1M NaCl, 0.01M NaH2PO4, 0.04% EDTA) was added to digest the cells for 3-5 min. Add ice-cold homogenate (50 mM HEPES PH 7.4, 3 mM MgCl, 1 mM EGTA) to the centrifuge tube, transfer the solution and sediment to a homogenizer and homogenize; then transfer the homogenate to a centrifuge tube and centrifuge at 18000 rpm. Centrifuge for 15 min, two times; the obtained precipitate was homogenized with appropriate amount of 50 mM Tris-HCl, pH 7.4 buffer and divided into centrifuge tubes and stored at −70° C. in the refrigerator until use.
(§2) The total binding tube was spiked with 20-30 μg of the expressed membrane receptor protein and […] ligand (1-2 nM), the corresponding non-specific binding tube was spiked with 1 μM of the corresponding ligand, and the sample tubes were spiked with various screened opioid ligands in a final volume of […], incubated at 30° C. for 30 min, and the reaction was terminated in ice water. […] The samples were filtered under negative pressure through GF/C (whatman) glass fiber filter paper on a Millipore sample collector. The reaction was rinsed three times with 4 ml of 50 mMV Tris-HCl (pH 7.4), the filter paper was dried and placed in 0.5 ml Eppendorf tubes with 0.5 ml of lipophilic scintillation solution, the radioactivity was measured by PERKIN ELMER PRI-CARB 2910 liquid scintillation counter and the inhibition rate was calculated. Inhibition rate (or binding rate)=(total binding rate dpm−sample tube dpm)/(total binding tube dpm−non-specific binding tube dpm)×100%
(§3) IC50 was calculated using Prism 5.0 software. the Ki value was calculated as follows, Ki=IC50/(1+[IL]/Kd), [lL] is the concentration of the added labeled ligand and Kd is the equilibrium dissociation parameter of the labeled ligand.
(§4) CHO cells expressing p opioid receptor, δ opioid receptor and κ opioid receptor were cultured in a 10 cm^2 culture dish (F-12 medium+10% neonatal bovine serum) for several days, and the culture fluid was aspirated after the cells grew to the bottom of the dish. 3 mL PBS/EDTA solution (0.1 M NaCl, 0.01 M NaH2PO4, 0.04% EDTA) was added to digest the cells for 3˜5 min, blew with a pipette to completely dislodge the cells. The cells were collected in a 40 mL centrifuge tube, centrifuged at 5000 rpm for 5 min. The supernatant was removed and the ice-cold homogenate (50 mM HEPES pH 7.4, 3 mM MgCl2, 1 mM EGTA) was added to the centrifuge tube. The solution and the precipitate were transferred to a homogenizer. Then the homogenate was transferred to a centrifuge tube and centrifuged at 18000 rpm for 15 min. The precipitate was centrifuged twice at 18000 rpm for 15 min. The obtained precipitate was homogenized by adding appropriate amount of 50 mM Tris-HCl, pH 7.4 buffer and divided into centrifuge tubes and stored at −70° C. in the refrigerator until use.
(§5) The total binding tube was added with 20-30 μg of expressed membrane receptor protein and [3H]-labeled ligand (1-2 nM). The corresponding non-specific binding tube was added with 1 μM of the corresponding ligand, and the sample tubes were added with various screened opioid ligands in a final volume of 100 μL. All of them were incubated for 30 min at 30° C., and the reaction was terminated in ice water. The samples were filtered under negative pressure through GF/C (Whatman) glass fiber filter paper on a Millipore sample collector. The reaction was rinsed three times with 4 mL of 50 mM Tris-HCl (pH 7.4), the filter paper was dried and placed in 0.5 mL Eppendorf tubes with 0.5 mL of lipophilic scintillation solution. […]

κ opioid receptor = target: T2, κ opioid receptor (Homo sapiens, UniProt P41145); test: Competition binding assay on membranes of CHO cells expressing κ opioid receptor, [3H]-labeled ligand; details: for inhibition at 10 µM / inhibition at 1 µM: 0.5 h; for inhibition at 10 µM: Table 1-1, 10 μM concentration of compound, read-out: κOR Binding rate (%); for Ki: read-out: κOR Ki; for inhibition at 1 µM: read-out: κOR Combination rate (%)
T2 construct: expressed in transfected cells; host or cells: CHO cells (membranes)
Experimental: as §1, §2, §3, §4, §5

δ opioid receptor = target: T3, δ opioid receptor (Homo sapiens, UniProt P41143); test: Competition binding assay on membranes of CHO cells expressing δ opioid receptor, [3H]-labeled ligand; details: for inhibition at 10 µM / inhibition at 1 µM: 0.5 h; for inhibition at 10 µM: Table 1-1, 10 μM concentration of compound, read-out: δOR Binding rate (%); for Ki: read-out: δOR Ki; for inhibition at 1 µM: read-out: δOR Combination rate (%)
T3 construct: expressed in transfected cells; host or cells: CHO cells (membranes)
Experimental: as §1, §2, §3, §4, §5

Female mice = test: In vivo hot plate method analgesia test; details: intraperitoneal; for Maximum percentage effective analgesic (% MPE): Table 1-2, hot plate 55° C., 5 mg/kg dose; for Maximum percentage effective analgesia (% MPE): Table 5-2, hot plate 55° C.
Experimental: Female mice weighing about 20 g were placed on a hot plate apparatus preheated to 55° C., and the latency of the hindfoot response of the mice was used as the pain threshold indicator. Animals were screened before the experiment, and those with response latency less than 5 s or more than 30 s were excluded. To prevent foot scalding, the maximum observation time was set at 60 s. The basal pain threshold was the average of two measurements, with a 5-min interval between measurements. pain thresholds were measured at 15 m, 30 m, 60 m and 120 m after intraperitoneal injection in each group of mice. The percentage effective analgesia (% MPE) was calculated according to the following formula: percentage effective analgesia (% MPE) (post-dose latency−pre-dose latency)/(60−pre-dose latency)×100%. ED50 values were calculated based on the effective percentage of analgesia using the software Graphpad prism 5.0 software.
(§6) Female mice weighing about 20 g were placed on a hot plate apparatus preheated to 55° C., and the latency of the hindfoot response of the mice was used as the pain threshold indicator. Animals were selected before the experiment, and those with response latency less than 5 s or greater than 30 s were excluded. To prevent foot scalding, the maximum observation time was set at 60 s. The basal pain threshold was the average of two measurements, with a 5-min interval between measurements. pain thresholds were measured at 15 min, 30 min, 60 min and 120 min after intraperitoneal administration in each group of mice. The percentage of analgesic effectiveness (% MPE) was calculated according to the following equation. Percentage of effective analgesia (% MPE)_(Pre-dose incubation period−Incubation period after drug administration)/(60-Pre-dose incubation period)×100%. ED50 values were calculated based on the effective percentage of analgesia using GraphPad prism 5.0 software.
as §6, with “were screened” for “were selected”, “measurements. Pain” for “measurements. pain”, “following formula.” for “following equation. Percentage of effective analgesia (% MPE)_(Pre-dose incubation period−Incubation period after drug administration)/(60-Pre-dose incubation period)×100%. ED50 values were calculated based on the effective percentage of analgesia using GraphPad prism 5.0 software.”
ED50 values were calculated based on the effective percentage of analgesia using Graphpad Prism 5.0.
Female mice weighing about 20 g were placed on a hot plate apparatus preheated to 55° C., and the latency of the hindfoot response of the mice was used as the pain threshold indicator. Animals were screened before the experiment, and those with response latency less than 5 s or more than 30 s were excluded. To prevent foot scalding, the maximum observation time was set at 60 s. The basal pain threshold was the average of two measurements, with a 5-min interval between measurements. pain thresholds were measured at 15 min, 30 min, 60 min and 120 min after intraperitoneal administration in each group of mice. The analgesic effective percentage (% MPE) was calculated according to the following formula: analgesic effective percentage (% MPE)=(latency after drug administration−latency before drug administration)/(60−latency before drug administration)×100%. ED50 values were calculated based on the effective percentage of analgesia using the software Graphpad prism 5.0.
Female mice weighing about 20 g were placed on a hot plate apparatus preheated to 55° C. and the latency of the hindfoot response was used as an indicator of pain threshold. […]

[1] = Table 5-1, 1 μM concentration of compound

## COc1cccc(C2(O)CCC(CS(=O)(=O)c3ccccc3)CC2CN(C)C)c1.Cl (stereo not shown) [2-((Dimethylamino)methyl)-1-(3-methoxyphenyl)-4-((phenylsulfonyl)methyl)cyclohexane-1-ol hydrochloride]
μ opioid receptor
  inhibition at 10 µM: 86.9 ± 2%
κ opioid receptor
  inhibition at 10 µM: 34.6 ± 5.1%
δ opioid receptor
  inhibition at 10 µM: 9.3%
Female mice
  Maximum percentage effective analgesic (% MPE): 22.4%

## COc1cccc(C2(O)CCC(N(C)S(=O)(=O)c3cccc(Cl)c3)CC2CN(C)C)c1.Cl (stereo not shown) [3-Chloro-N-(3-((dimethylamino)methyl)-4-hydroxy-4-(methoxyphenyl)cyclohexyl)-N-methylbenzenesulfonamide hydrochloride]
μ opioid receptor
  inhibition at 10 µM: 90 ± 2%
κ opioid receptor
  inhibition at 10 µM: 66.6 ± 4.8%
δ opioid receptor
  inhibition at 10 µM: 13.8 ± 3%
Female mice
  Maximum percentage effective analgesic (% MPE): 20.2%

## COc1cccc([C@@]2(O)CCN(S(=O)(=O)Cc3ccccc3)C[C@@H]2CN(C)C)c1.Cl [(3S,4R)-1-(Benzylsulfonyl)-3-((dimethylamino)methyl)-4-(3-methoxyphenyl)piperidin-4-ol hydrochloride]
μ opioid receptor; Table 4-1 footnote a, 0.1 μM, read-out: μOR Inhibition rate
  inhibition at 0.1 µM: 24.5 ± 0.64%
κ opioid receptor; Table 4-1 footnote a, 0.1 μM, read-out: κOR Inhibition rate
  inhibition at 0.1 µM: 20.75 ± 0.13%
δ opioid receptor; Table 4-1 footnote a, 0.1 μM, read-out: δOR Inhibition rate
  inhibition at 0.1 µM: 7.3 ± 4.5%
Female mice; Table 4-2, hot plate 55° C., 10 mg/kg dose
  % MPE: 13.4%

## COc1cccc(C2(O)CCN(C(=O)Cc3cc(C(F)(F)F)cc(C(F)(F)F)c3)CC2CN(C)C)c1.Cl (stereo not shown) [FWBE1, 2-(3,5-Bis(trifluoromethyl)phenyl)-1-(3-((dimethylamino)methyl)-4-hydroxy-4-(3-methoxyphenyl)piperidin-1-yl)ethyl-1-one hydrochloride]
μ opioid receptor; Table 5-1, read-out: μOR Ki
  Ki: 0.0253 ± 0.0049 µM
κ opioid receptor; Table 5-1
  Ki: 4.42 ± 0.181 µM
δ opioid receptor; Table 5-1
  Ki: 4.39 ± 0.351 µM
Female mice; 10 mg/kg dose
  Maximum percentage effective analgesia (% MPE): 17.8%

## COc1cccc(C2(O)CCN(C(=O)Cc3ccsc3)CC2CN(C)C)c1.Cl (stereo not shown) [FWBE2, 1-(3-((Dimethylamino)methyl)-4-hydroxy-4-(3-methoxyphenyl)piperidin-1-yl)-2-(thiophen-3-yl)ethyl-1-one hydrochloride]
μ opioid receptor
  inhibition at 1 µM: 40.6 ± 0.9%
κ opioid receptor
  inhibition at 1 µM: 20.8 ± 1.9%
δ opioid receptor
  inhibition at 1 µM: 14.7 ± 0.9%
Female mice; 10 mg/kg dose
  Maximum percentage effective analgesia (% MPE): 42%

## COc1cccc(C2(O)CCN(C(=O)Cc3ccccc3)CC2CN(C)C)c1.Cl (stereo not shown) [FWBE3, 1-(3-((Dimethylamino)methyl)-4-hydroxy-4-(3-methoxyphenyl)piperidin-1-yl)-2-phenylethyl-1-one hydrochloride]
μ opioid receptor
  inhibition at 1 µM: 41.1 ± 2.3%
κ opioid receptor
  inhibition at 1 µM: 23.4 ± 5.7%
δ opioid receptor
  inhibition at 1 µM: 11.7 ± 0.9%
Female mice; 10 mg/kg dose
  Maximum percentage effective analgesia (% MPE): 63.5%

## COc1cccc(C2(O)CCN(C(=O)Cc3cccc(C(F)(F)F)c3)CC2CN(C)C)c1.Cl (stereo not shown) [FWBE4, 1-(3-((Dimethylamino)methyl)-4-hydroxy-4-(3-methoxyphenyl)piperidin-1-yl)-2-(3-(trifluoromethyl)phenyl)ethyl-1-one hydrochloride]
μ opioid receptor; [1]
  inhibition at 1 µM: 37.8 ± 2.9%
κ opioid receptor; Table 5-1
  Ki: 3.03 ± 0.15 µM
δ opioid receptor; Table 5-1
  Ki: > 10 µM
Female mice; 10 mg/kg dose
  Maximum percentage effective analgesia (% MPE): 69%

## COc1cccc(C2(O)CCN(C(=O)c3cc(F)c(F)cc3F)CC2CN(C)C)c1.Cl (stereo not shown) [FWBE5, (3-((Dimethylamino)methyl)-4-hydroxy-4-(3-methoxyphenyl)piperidin-1-yl)(2,4,5-trifluorophenyl)methanone hydrochloride]
μ opioid receptor; [1]
  inhibition at 1 µM: 13 ± 0.2%
κ opioid receptor; [1]
  inhibition at 1 µM: 23 ± 5.9%
δ opioid receptor; [1]
  inhibition at 1 µM: 7 ± 6.3%
Female mice; 10 mg/kg dose
  Maximum percentage effective analgesia (% MPE): 3%

## COc1cccc(C2(O)CCN(C(=O)Cc3cccc(OC(F)(F)F)c3)CC2CN(C)C)c1.Cl (stereo not shown) [FWBE6, 1-(3-((Dimethylamino)methyl)-4-hydroxy-4-(3-methoxyphenyl)piperidin-1-yl)-2-(3-(trifluoromethoxy)phenyl)ethyl-1-one hydrochloride]
μ opioid receptor; [1]
  inhibition at 1 µM: 21.5 ± 0.1%
κ opioid receptor; [1]
  inhibition at 1 µM: 13.5 ± 0.6%
δ opioid receptor; [1]
  inhibition at 1 µM: 13.2 ± 1%
Female mice; 10 mg/kg dose
  Maximum percentage effective analgesia (% MPE): 47%

## COc1cccc(C2(O)CCN(C(=O)Cn3cnnn3)CC2CN(C)C)c1.Cl (stereo not shown) [FWBE7, 1-(3-((Dimethylamino)methyl)-4-hydroxy-4-(3-methoxyphenyl)piperidin-1-yl)-2-(1H-tetrazol-1-yl)ethyl-1-one hydrochloride]
μ opioid receptor; [1]
  inhibition at 1 µM: 0%
κ opioid receptor; [1]
  inhibition at 1 µM: 22.9 ± 0.6%
δ opioid receptor; [1]
  inhibition at 1 µM: 8.9 ± 2.4%
Female mice; 10 mg/kg dose
  Maximum percentage effective analgesia (% MPE): 12.0%
